Source: patent US20180179198A1, “TRICYCLIC MODULATORS OF TNF SIGNALING” (AbbVie Inc., priority 2015, published 2018)
Where a name gives a salt, the structure may show the parent alone.

molecular target: TNFα trimer (Homo sapiens, UniProt P01375); assay: TNFα FP Competitive Binding Assay; conditions: fluorescence polarization competition; 20 nM TNFα trimer, 1 nM OregonGreen488 probe; read-out: TNF IC50 (TNFα FP binding assay IC50)
How it was run: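 Fluorescence polarization displacement: 20 nM TNFα trimer (60 nM protein) with 1 nM fluorescein-labelled bis-isoquinoline probe in HEPES/NaCl/EDTA/Triton X-100 buffer. 12-point 1:3 compound series, top final 338 μM (3.4% DMSO) or 100 μM (2.0% DMSO); 18-24 h at 37 °C, then 1 h rt before background-subtracted mP read; variable-slope curve fit.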

Chain of TNFα trimer (P01375 77-233 limits assumed): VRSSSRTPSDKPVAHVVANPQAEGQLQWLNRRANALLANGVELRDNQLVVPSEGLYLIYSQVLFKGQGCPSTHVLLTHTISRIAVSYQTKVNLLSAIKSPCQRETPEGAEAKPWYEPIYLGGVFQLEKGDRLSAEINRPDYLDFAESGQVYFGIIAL

Row | Compound | IC50
1 | CC(C)(O)c1ncc(-c2ccc3nc4n(c3n2)C(c2ccccn2)CC4)cn1 (stereo not drawn) [Example 29, 2-(5-(8-(Pyridin-2-yl)-7,8-dihydro-6H-pyrrolo[2′,1′:2,3]imidazo[4,5-b]pyridin-2-yl)pyrimidin-2-yl)propan-2-ol] | 1000 to 10000 nM
2 | O=C1NC[C@H]2CN(c3ncc(-c4ccc5nc6n(c5n4)[C@@H](c4ccccc4)CC6)cn3)CCN12 [Example 31, (S)-7-(5-((R)-8-Phenyl-7,8-dihydro-6H-pyrrolo[2′,1′:2,3]imidazo[4,5-b]pyridin-2-yl)pyrimidin-2-yl)hexahydroimidazo[1,5-a]pyrazin-3(2H)-one] | < 1000 nM
3 | COc1ccccc1C1COCc2nc3ccc(-c4cnc(C(C)(C)O)nc4)cn3c21 (stereo not drawn) [Example 32, 2-(5-(4-(2-Methoxyphenyl)-3,4-dihydro-1H-pyrano[3′,4′:4,5]imidazo[1,2-a]pyridin-7-yl)pyrimidin-2-yl)propan-2-ol] | < 1000 nM
4 | OC1CCN(c2ncc(-c3ccc4nc5c(n4n3)C(c3ccccc3)CC5)cn2)CC1 (stereo not drawn) [Example 33, 1-(5-(8-Phenyl-7,8-dihydro-6H-cyclopenta[4,5]imidazo[1,2-b]pyridazin-2-yl)pyrimidin-2-yl)piperidin-4-ol] | < 1000 nM
5 | COc1ccccc1C1CCc2nc3ccc(-c4cnc(N5CCN6C(=O)NCC6C5)nc4)nn3c21 (stereo not drawn) [Example 34, 7-(5-(8-(2-Methoxyphenyl)-7,8-dihydro-6H-cyclopenta[4,5]imidazo[1,2-b]pyridazin-2-yl)pyrimidin-2-yl)hexahydroimidazo[1,5-a]pyrazine-3(2H)-one] | < 1000 nM
6 | O=C1NCC2CN(c3ncc(-c4ccc5nc6n(c5c4)C(c4ccccc4C(F)(F)F)COC6)cn3)CCN12 (stereo not drawn) [Example 35, 7-(5-(4-(2-(Trifluoromethyl)phenyl)-3,4-dihydro-H-benzo[4,5]imidazo[2,1-c][1,4]oxazin-7-yl)pyrimidin-2-yl)hexahydroimidazo[1,5-a]pyrazin-3(2H)-one] | < 1000 nM
7 | NC1CC2(CCN(c3ncc(-c4ccc5nc6n(c5c4)[C@@H](c4ccccc4)COC6)cn3)CC2)C1 [Example 36, (S)-7-(5-(4-Phenyl-3,4-dihydro-1H-benzo[4,5]imidazo[2,1-c][1,4]oxazin-7-yl)pyrimidin-2-yl)-7-azaspiro[3.5]nonan-2-amine] | < 1000 nM
8 | c1ccc([C@H]2COCc3nc4ccc(-c5cnc(N6[C@H]7CCC[C@@H]6CNCC7)nc5)cc4n32)cc1 [Example 37] | < 1000 nM
9 | CC(C)(O)c1ncc(-c2ccc3nc4n(c3c2)C(C2CCOCC2)CC4)cn1 (stereo not drawn) [Example 38, 2-(5-(1-(Tetrahydro-2H-pyran-4-yl)-2,3-dihydro-1H-benzo[d]pyrrolo[1,2-a]imidazol-7-yl)pyrimidin-2-yl)propan-2-ol] | 10000 to 100000 nM
10 | CC(C)(O)c1ncc(-c2ccc3nc4n(c3n2)C(C)(c2ccccc2)CC4)cn1 (stereo not drawn) [Example 39, 2-(5-(8-Methyl-8-phenyl-7,8-dihydro-6H-pyrrolo[2′,1′:2,3]imidazo[4,5-b]pyridin-2-yl)pyrimidin-2-yl)propan-2-ol] | < 1000 nM
11 | OC[C@H]1CCCN1c1ncc(-c2ccc3nc4n(c3n2)[C@@H](c2ccccc2)CC4)cn1 [Example 40, ((R)-1-(5-((R)-8-Phenyl-7,8-dihydro-6H-pyrrolo[2′,1′:2,3]imidazo[4,5-b]pyridin-2-yl)pyrimidin-2-yl)pyrrolidin-2-yl)methanol] | 1000 to 10000 nM
12 | CC(=O)N1CCN(c2ncc(-c3ccc4nc5n(c4n3)[C@@H](c3ccccc3)CC5)cn2)C[C@H]1C [Example 41, 1-((R)-2-Methyl-4-(5-((R)-8-phenyl-7,8-dihydro-6H-pyrrolo[2′,1′:2,3]imidazo[4,5-b]pyridin-2-yl)pyrimidin-2-yl)piperazin-1-yl)ethanone] | < 1000 nM
13 | CC(=O)N1CCN(c2ncc(-c3ccc4nc5n(c4n3)[C@@H](c3ccccc3)CC5)cn2)C[C@@H]1C [Example 42, 1-((S)-2-Methyl-4-(5-((R)-8-phenyl-7,8-dihydro-6H-pyrrolo[2′,1′:2,3]imidazo[4,5-b]pyridin-2-yl)pyrimidin-2-yl)piperazin-1-yl)ethanone] | < 1000 nM
14 | C[C@@H]1CN(c2ncc(-c3ccc4nc5n(c4n3)[C@@H](c3ccccc3)CC5)cn2)CCN1C(=O)CO [Example 43, 2-Hydroxy-1-((R)-2-methyl-4-(5-((R)-8-phenyl-7,8-dihydro-6H-pyrrolo[2′,1′:2,3]imidazo[4,5-b]pyridin-2-yl)pyrimidin-2-yl)piperazin-1-yl)ethanone] | < 1000 nM
15 | CC(=O)N1CCN(c2ncc(-c3ccc4nc5n(c4n3)[C@@H](c3cccc(CO)c3)CC5)cn2)C[C@H]1C [Example 44, 1-((R)-4-(5-((R)-8-(3-(Hydroxymethyl)phenyl)-7,8-dihydro-6H-pyrrolo[2′,1′:2,3]imidazo[4,5-b]pyridin-2-yl)pyrimidin-2-yl)-2-methylpiperazin-1-yl)ethanone] | < 1000 nM
16 | CC(C)[C@H](N)C(=O)OC1CCN(c2ncc(-c3ccc4nc5n(c4n3)[C@@H](c3ccccc3)CC5)cn2)CC1 [Example 46, (S)-1-(5-((R)-8-Phenyl-7,8-dihydro-6H-pyrrolo[2′,1′:2,3]imidazo[4,5-b]pyridin-2-yl)pyrimidin-2-yl)piperidin-4-yl 2-amino-3-methylbutanoate] | 1000 to 10000 nM
17 | O=P(O)(O)OC1CCN(c2ncc(-c3ccc4nc5n(c4n3)[C@@H](c3ccccc3)CC5)cn2)CC1 [Example 46.1, (R)-1-(5-(8-Phenyl-7,8-dihydro-6H-pyrrolo[2′,1′:2,3]imidazo[4,5-b]pyridin-2-yl)pyrimidin-2-yl)piperidin-4-yl dihydrogen phosphate hydrochloride] | 1000 to 10000 nM
18 | c1ccc([C@H]2CCc3nc4ccc(-c5ccnc(OC6CCOCC6)c5)nc4n32)cc1 [Example 47, (R)-8-Phenyl-2-(2-((tetrahydro-2H-pyran-4-yl)oxy)pyridin-4-yl)-7,8-dihydro-6H-pyrrolo[2′,1′:2,3]imidazo[4,5-b]pyridine] | < 1000 nM
19 | c1ccc([C@H]2CCc3nc4ccc(-c5ccnc(OC6CCCOC6)c5)nc4n32)cc1 (stereo partly drawn) [Example 48, (8R)-8-Phenyl-2-(2-((tetrahydro-2H-pyran-3-yl)oxy)pyridin-4-yl)-7,8-dihydro-6H-pyrrolo[2′,1′:2,3]imidazo[4,5-b]pyridine] | 1000 to 10000 nM
20 | c1ccc([C@H]2CCc3nc4ccc(-c5ccnc(O[C@H]6CCNC6)c5)nc4n32)cc1 [Example 49] | 1000 to 10000 nM
21 | OC1CCN(c2ncc(-c3ccc4nc5n(c4n3)C3(COC5)COc4ccccc43)cn2)CC1 (stereo not drawn) [Example 50, 1-(5-(6′,8′-Dihydro-2H-spiro[benzofuran-3,9′-pyrido[3′,2′:4,5]imidazo[2,1-c][1,4]oxazin]-2′-yl)pyrimidin-2-yl)piperidin-4-ol] | < 1000 nM
22 | c1ccc2c(c1)OCC21COCc2nc3ccc(-c4cnc(N5CCOCC5)nc4)nc3n21 (stereo not drawn) [Example 51, 2′-(2-Morpholinopyrimidin-5-yl)-6′,8′-dihydro-2H-spiro[benzofuran-3,9′-pyrido[3′,2′:4,5]imidazo[2,1-c][1,4]oxazine]] | < 1000 nM
23 | OC1CCN(c2ncc(-c3ccc4nc5n(c4n3)C3(CCc4ccccc43)COC5)cn2)CC1 (stereo not drawn) [Example 52] | < 1000 nM
24 | O=c1cc(-c2ccc3nc4n(c3n2)[C@@H](c2ccccc2)CC4)ccn1CC1CCC(F)(F)CC1 [Example 53, (R)-1-((4,4-Difluorocyclohexyl)methyl)-4-(8-phenyl-7,8-dihydro-6H-pyrrolo[2′,1′:2,3]imidazo[4,5-b]pyridin-2-yl)pyridin-2(1H)-one] | 1000 to 10000 nM
